Source: PubChem BioAssay AID463204 (Broad Institute, 2010)
The source made the active and inactive calls.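 Rule for the calls: active = AC50 no more than ten times the top concentration tested, that is within one log above it; inconclusive = flat curve fit with activity between 30% and 70%, or invalid poor fit; inactive = AC50 beyond ten times the top tested dose.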

Tested on: S. cerevisiae Mot1-301 ts growth rescue, BacTiter-Glo ATP luminescence
Test: growth rescue of Mot1-301 ts yeast, confirmation, SUMOylation pathway inhibitor project, whole organism, S. cerevisiae, Mot1-301 ts mutant, luminescence, dose retest (AID 463204);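 note: growth at restrictive 38.5 degrees C of Mot1-301 OY566 strain; actives raise luminescence by restoring growth of the ts mutant at high temperature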

SMILES	AC50
CC(=O)NC1CCCN(O)C(=O)/C=C(\C)CCOC(=O)C(NC(C)=O)CCCN(O)C(=O)/C=C(\C)CCOC(=O)C(NC(C)=O)CCCN(O)C(=O)/C=C(\C)CCOC1=O (stereo unspecified)	> 42 µM (inactive)
CCOC(=O)N1CCN(C(=O)c2ccc(OC)c(OC)c2)CC1	> 42 µM (inactive)
CC1CC(C)(C)NC(=S)N1CC(=O)NCc1ccc(F)cc1 (stereo unspecified)	> 42 µM (inactive)
COc1cc2nc(CSc3ncn[nH]3)[nH]c(=O)c2cc1OC	> 42 µM (inactive)
CCCCOc1ccc(C(=O)Nc2ccc(N3CCN(C)CC3)cc2)cc1	> 42 µM (inactive)
Cc1nn(CC(N)=O)c(=O)c2ccccc12	> 42 µM (inactive)
Cc1cccc(N=C2C(=O)Nc3c(Cl)cccc32)c1	> 42 µM (inactive)
O=C(CSc1nc(-c2ccccc2)cc(=O)[nH]1)Nc1ccc(Br)cc1	> 42 µM (inactive)
Cc1ccc(Oc2ccccc2NC(=O)C2=COCCO2)cc1	> 42 µM (inactive)
O=C(CCCC(=O)N/N=C/c1ccccc1C(=O)O)N/N=C/c1ccccc1C(=O)O	> 42 µM (inactive)
CN(C(=O)CSc1nc(-c2ccccc2)c(-c2ccccc2)o1)C1CCS(=O)(=O)C1 (stereo unspecified)	> 42 µM (inactive)
CCCCCCNc1c(C(=O)OCC)c(=O)[nH]c2ccccc12	> 42 µM (inactive)
COc1cc(O)oc1C=Nc1ccc(C(=O)O)cc1	> 42 µM (inactive)
CC1(C)C2CC[C@]3(C)C(CC=C4[C@@H]5C[C@@](C)(CO)[C@@H](O)C[C@]56C[C@@H](OC6=O)[C@]43C)[C@@]2(C)CC[C@@H]1O (stereo partly specified)	> 42 µM (inactive)
CCCCn1c(N)c(N(CC(C)C)C(=O)c2cc(-c3ccc(F)cc3)nc3ccccc23)c(=O)[nH]c1=O	> 42 µM (inactive)
COc1ccc(-n2c(C)cc(C(=O)CN3C(=O)NC4(CCCc5sccc54)C3=O)c2C)cc1 (stereo unspecified)	> 42 µM (inactive)
COc1ccc(S(=O)(=O)n2nc(-c3ccc(Cl)cc3)cc2N)cc1OC	> 42 µM (inactive)
Cn1c(=O)[nH]c(=O)c2c1nc(NCCN)n2CCOc1ccccc1	> 42 µM (inactive)

SMILES	AC50
COc1cc([N+](=O)[O-])cc(/C=N/NC(=O)c2cc(C)nc3ccccc23)c1O	> 42 µM (inactive)
C=C1C2C[C@@]3([C@@H]1O)[C@@H](C[C@@H]2O)[C@@]12C4[C@@H]3C[C@@H]1[C@@](C)(CC[C@@H]2O)CN4CC	> 42 µM (inactive)
CN(C)CCOC(=O)CCc1ccccc1	> 42 µM (inactive)
CCOC(=O)c1sc(N/N=C/c2ccc(N(C)C)cc2)nc1C	> 42 µM (inactive)
Cc1ccc(C(=O)N/C(=C\c2cccs2)C(=O)NCCc2c[nH]c3ccccc23)cc1	> 42 µM (inactive)
CCOC(=O)CCN(c1ccccc1)S(=O)(=O)c1ccc(-c2ccc(=O)[nH]n2)s1	> 42 µM (inactive)
O=C(CN(CC1CCCO1)C(=O)CNS(=O)(=O)c1ccc(F)cc1)NCc1ccccc1 (stereo unspecified)	> 42 µM (inactive)
Cc1cc(=O)oc2ccc(OC(=O)CC(C)C)cc12	> 42 µM (inactive)
CCOC(=O)C1(c2ccccc2)CCN(CCC(=O)Nc2ccccc2OC)CC1	> 42 µM (inactive)
CC[C@@H]1C/C=C\Cc2ccccc2[C@H](C(=O)C[C@@H](O)CC(C)=O)OC1=O	8.7 µM
Cc1ccc(C(C(=O)NC2CCCCC2)N(CCC(C)C)C(=O)CNC(=O)c2ccco2)o1 (stereo unspecified)	> 42 µM (inactive)
OC(c1ccccc1)(C1CCCCC1)C(CN1CCOCC1)c1ccccc1 (stereo unspecified)	13.9 µM
On1c(-c2ccccc2Cl)nc2ncccc21	> 42 µM (inactive)
COCC(=O)n1nc(-c2ccc(Cl)cc2)nc1NCc1ccc(F)cc1	> 42 µM (inactive)
COc1ccc(-c2csc(Nc3cc(C)ccn3)n2)cc1C	> 42 µM (inactive)
CN(C)c1cccc(C(=O)Nc2cc(C(F)(F)F)ccc2-n2cnc3ccccc32)c1	> 42 µM (inactive)
O=C(CCCCCn1c(=O)[nH]c2ccsc2c1=O)NCc1ccc(F)cc1	> 42 µM (inactive)
CN1C(=O)NC(=O)[C@]2(Cc3ccccc3N3CCN(c4ccccc4)CC32)C1=O (stereo partly specified)	> 42 µM (inactive)
